# Reference: ChEMBL document CHEMBL5385915 (J Med Chem, 2024)
# Test system: Mycobacterium tuberculosis variant bovis
# Assay: Bactericidal activity against Mycobacterium bovis BCG assessed as inhibition of bacterial growth incubated for 7 days by resazurin dye based assay
# Type: functional
# Details: 168 h, time 7 day
row,SMILES,MBC [µM]
1,FC(F)(F)c1cc([C@H]2C[C@@H](CN3CCCC3)N2Cc2ccccc2Br)cc(C(F)(F)F)c1 (racemic),12
2,FC(F)(F)Oc1ccc([C@H]2C[C@@H](CN3CCCC3)N2Cc2ccccc2OC(F)(F)F)cc1 (racemic),12

# Test system: Mycobacterium tuberculosis variant bovis
# Assay: Antimycobacterial activity against Mycobacterium bovis BCG assessed as reduction in microbial growth incubated for 7 days by resazurin dye based assay
# Type: functional
# Details: 168 h, time 7 day
row,SMILES,MIC99 [µM]
1,Brc1ccccc1CN1[C@H](CN2CCCC2)C[C@@H]1c1ccccc1 (racemic),65
2,Clc1cc(Cl)cc([C@H]2C[C@@H](CN3CCCC3)N2Cc2ccccc2Br)c1 (racemic),11
3,COCCNC[C@@H]1C[C@H](c2ccc(OC(F)(F)F)cc2)N1Cc1ccccc1OC(F)(F)F (racemic),30
4,C#CCNC[C@@H]1C[C@H](c2cc(Br)cc(Br)c2)N1Cc1ccccc1Br (racemic),54
5,CC(C)NC[C@@H]1C[C@H](c2ccccc2)N1Cc1ccccc1OC(F)(F)F (racemic),45
6,FC(F)(F)c1cc([C@H]2C[C@@H](CN3CCCC3)N2Cc2ccccc2Br)cc(C(F)(F)F)c1 (racemic),22
7,CN(C)C[C@@H]1C[C@H](c2cc(Br)cc(Br)c2)N1Cc1ccccc1Br (racemic),48
8,COc1ccc([C@H]2C[C@@H](CN3CCCC3)N2Cc2ccccc2Br)cc1 (racemic),42.6
9,CC(C)NC[C@@H]1C[C@H](c2ccc(OC(F)(F)F)cc2)N1Cc1ccccc1OC(F)(F)F (racemic),26
10,FC(F)(F)c1ccc(C2CCN(C[C@@H]3C[C@H](c4ccccc4)N3Cc3ccccc3Br)CC2)cc1 (racemic),60
11,CC(C)NC[C@@H]1C[C@H](c2ccc(OC(F)(F)F)cc2)N1Cc1ccccc1Br (racemic),24
12,CC(C)NC[C@@H]1C[C@H](c2ccccc2)N1Cc1ccccc1Br (racemic),51
13,FC(F)(F)Oc1ccc(C2CCN(C[C@@H]3C[C@H](c4ccccc4)N3Cc3ccccc3Br)CC2)cc1 (racemic),56
